Tests used:
DU-145 = assay: Antiproliferative activity against human DU-145 cells assessed as inhibition of cell growth incubated for 72 hrs by MTT assay; assay type: functional, cell-based; conditions: DU-145, 72 h
HCT-116 = assay: cells; conditions: Homo sapiens, HCT-116, 72 h
Description: Antiproliferative activity against human HCT-116 cells assessed as inhibition of cell growth incubated for 72 hrs by MTT assay

HepG2 = assay: cells; conditions: Homo sapiens, HepG2, 72 h
BGC-823 = assay: Antiproliferative activity against human BGC-823 cells assessed as inhibition of cell growth incubated for 72 hrs by MTT assay; assay type: functional, cell-based; conditions: BGC-823, 72 h
MCF7 = assay: cells; conditions: Homo sapiens, MCF7, 72 h
Description: Antiproliferative activity against human MCF7 cells assessed as inhibition of cell growth incubated for 72 hrs by MTT assay

B16-F10 = assay: Antiproliferative activity against mouse B16-F10 cells assessed as inhibition of cell growth incubated for 72 hrs by MTT assay; assay type: functional, cell-based; conditions: B16-F10, 72 h
HCT-8 = assay: Antiproliferative activity against human HCT-8 cells assessed as inhibition of cell growth incubated for 72 hrs by MTT assay; assay type: functional, cell-based; conditions: HCT-8, 72 h
NCI-H1437 = assay: Antiproliferative activity against human NCI-H1437 cells assessed as inhibition of cell growth incubated for 72 hrs by MTT assay; assay type: functional, cell-based; conditions: NCI-H1437, 72 h
A549 [1] = assay: cells; conditions: Homo sapiens, A549, 72 h
NCI-H1299 = assay: Antiproliferative activity against human NCI-H1299 cells assessed as inhibition of cell growth incubated for 72 hrs by MTT assay; assay type: functional, cell-based; conditions: NCI-H1299, 72 h
NCI-H460 = assay: cells; conditions: Homo sapiens, NCI-H460, 72 h
Description: Antiproliferative activity against human NCI-H460 cells assessed as inhibition of cell growth incubated for 72 hrs by MTT assay

MDA-MB-231 = assay: cells; conditions: Homo sapiens, MDA-MB-231, 72 h
SW1990 = assay: Antiproliferative activity against human SW1990 cells assessed as inhibition of cell growth incubated for 72 hrs by MTT assay; assay type: functional, cell-based; conditions: SW1990, 72 h
HGC-27 = assay: Antiproliferative activity against human HGC-27 cells assessed as inhibition of cell growth incubated for 72 hrs by MTT assay; assay type: functional, cell-based; conditions: HGC-27, 72 h
A549 [2] = assay: Antiproliferative activity against paclitaxel-resistant human A549 cells assessed as inhibition of cell growth incubated for 72 hrs by MTT assay; assay type: functional, cell-based; conditions: A549, 72 h
A549 [3] = assay: Antitumor activity against paclitaxel-resistant human A549 cells xenografted in BALB/c nude mouse assessed as tumor growth inhibition at 24 mg/kg, po administered once daily and measured twice a week relative to control; assay type: functional; conditions: read-out: TGI
MCF7R = assay: Antiproliferative activity against paclitaxel-resistant human MCF7R cells assessed as inhibition of cell growth incubated for 72 hrs by MTT assay; assay type: functional, cell-based
HUVEC = assay: Anti-angiogenesis activity against HUVEC cells assessed as inhibition of cell growth incubated for 72 hrs by MTT assay; assay type: functional, cell-based; conditions: Homo sapiens

SMILES	IC50 (DU-145)	other results
Cc1ccc(C(=O)NCc2cccnc2)cc1NS(=O)(=O)c1ccc(C(C)C)cc1	1000 nM	–
Cc1ccc(C(=O)NCc2cccnc2)cc1NS(=O)(=O)c1ccc2c(c1)CCO2	1200 nM	–
Cc1ccc(S(=O)(=O)Nc2ccc(F)c(C(=O)NCc3cccnc3)c2)cc1	> 10000 nM	–
Cc1ccc(S(=O)(=O)Nc2cc(F)cc(C(=O)NCc3cccnc3)c2)cc1	900 nM	–
Cc1ccc(S(=O)(=O)Nc2cc(C(=O)NCc3cccnc3)ccc2F)cc1	790 nM	–
Cc1ccc(S(=O)(=O)Nc2cc(C(=O)NCc3ccc(C(F)(F)F)nc3)ccc2C)cc1	200 nM	–
CCCc1ccc(S(=O)(=O)Nc2cc(C(=O)NCc3cccnc3)ccc2C)cc1	9700 nM	–
Cc1ccc(S(=O)(=O)Nc2cc(C(=O)NC(C)c3cnccn3)ccc2C)cc1 (stereo not drawn)	510 nM	–
CNC(=O)c1ccc(C)c(NS(=O)(=O)c2ccc(C)cc2)c1	> 10000 nM	–
Cc1ccc(S(=O)(=O)Nc2cc(C(=O)NCc3cnccn3)ccc2C)cc1	> 10000 nM	–
CCc1ccc(S(=O)(=O)Nc2cc(C(=O)NCc3ccc(C)nc3)ccc2C)cc1	11 nM	–
Cc1ccc(S(=O)(=O)Nc2cc(C(=O)NCc3ccccn3)ccc2C)cc1	> 10000 nM	–
Cc1ccc(S(=O)(=O)Nc2cc(C)cc(C(=O)NCc3cccnc3)c2)cc1	340 nM	–
Cc1ccc(S(=O)(=O)Nc2cc(C(=O)NCc3cccnc3)cc(C(F)(F)F)c2)cc1	> 10000 nM	–
Cc1ccc(C(=O)NCc2cccnc2)cc1NS(=O)(=O)c1ccc(C(C)(C)C)cc1	> 10000 nM	–
Cc1ccc(C(=O)NCc2cccnc2)cc1NS(=O)(=O)c1ccc(C#N)cc1	> 10000 nM	–
COc1cc(NS(=O)(=O)c2ccc(C)cc2)cc(C(=O)NCc2cccnc2)c1	6200 nM	–
Cc1ccc(CNC(=O)c2ccc(C)c(NS(=O)(=O)c3ccc(C4CC4)cc3)c2)cn1	12 nM	–
COc1ccc(NS(=O)(=O)c2ccc(C)cc2)cc1C(=O)NCc1cccnc1	> 10000 nM	–
CCc1ccc(C(=O)NCc2cccnc2)cc1NS(=O)(=O)c1ccc(C)cc1	860 nM	–
Cc1ccc(C(=O)NCc2cccnc2)cc1NS(=O)(=O)c1ccc(C2CC2)cc1	50 nM	–
Cc1ccc(S(=O)(=O)Nc2cc(C(=O)NCc3cccnc3)ccc2C)cc1C	970 nM	–
Cc1ccc(S(=O)(=O)Nc2cc(C(=O)NCCc3cccnc3)ccc2C)cc1	> 10000 nM	–
Cc1ccc(S(=O)(=O)Nc2cc(C(=O)NCc3ccncc3)ccc2C)cc1	1700 nM	–
Cc1ccc(C(=O)NCc2cccnc2)cc1NS(=O)(=O)c1ccc(C(F)(F)F)cc1	5300 nM	–
Cc1ccc(S(=O)(=O)Nc2cc(C(=O)NC3(c4cnccn4)CC3)ccc2C)cc1	800 nM	–
Cc1ccc(C(=O)NCc2cccnc2)cc1NS(=O)(=O)c1ccccc1	> 10000 nM	–

SMILES	IC50 (DU-145)	other results
Cc1ccc(S(=O)(=O)Nc2cc(C(=O)NCc3cccnc3)ccc2C)cc1	120 nM	–
COc1ccc(C(=O)NCc2cccnc2)cc1NS(=O)(=O)c1ccc(C)cc1	9500 nM	–
Cc1ccc(C(=O)NCc2cccnc2)cc1NS(=O)(=O)c1ccc2ccccc2c1	1000 nM	–
COc1cc2c(c(OC)c1OC)-c1ccc(OC)c(=O)cc1[C@@H](NC(C)=O)CC2 [COLCHICINE]	3 nM	IC50 (HCT-116): 3 nM; IC50 (HepG2): 2 nM; IC50 (BGC-823): 16 nM; IC50 (MCF7): 6 nM; IC50 (B16-F10): 3 nM; IC50 (HCT-8): 22 nM; IC50 (NCI-H1437): 2 nM; IC50 (A549 [1]): 30 nM; IC50 (NCI-H1299): 4 nM; IC50 (NCI-H460): 54 nM; IC50 (MDA-MB-231): 23 nM; IC50 (SW1990): 10 nM; IC50 (HGC-27): 3 nM
Cc1ccc(S(=O)(=O)Nc2cccc(C(=O)NCc3cccnc3)c2)cc1	700 nM	–
Cc1ccc(C(=O)NCc2cccnc2)cc1NS(=O)(=O)c1ccc(Cl)cc1	930 nM	–
CCOc1ccc(S(=O)(=O)Nc2cc(C(=O)NCc3cccnc3)ccc2C)cc1	860 nM	–
CCCCc1ccc(S(=O)(=O)Nc2cc(C(=O)NCc3cccnc3)ccc2C)cc1	> 10000 nM	–
Cc1ccc(S(=O)(=O)Nc2cc(C(=O)NCc3ccnnc3)ccc2C)cc1	1300 nM	–
Cc1ccc(S(=O)(=O)Nc2ccc(Cl)c(C(=O)NCc3cccnc3)c2)cc1	> 10000 nM	–
Cc1ccc(S(=O)(=O)Nc2cc(C#N)cc(C(=O)NCc3cccnc3)c2)cc1	> 10000 nM	–
COc1ccc(S(=O)(=O)Nc2cc(C(=O)NCc3cccnc3)ccc2C)cc1	180 nM	–
CCc1ccc(S(=O)(=O)Nc2cc(C(=O)NCc3cccnc3)ccc2C)cc1	40 nM	–
CC(=O)O[C@H]1C(=O)[C@@]2(C)[C@H]([C@H](OC(=O)c3ccccc3)[C@]3(O)C[C@H](OC(=O)[C@H](O)[C@@H](NC(=O)c4ccccc4)c4ccccc4)C(C)=C1C3(C)C)[C@]1(OC(C)=O)CO[C@@H]1C[C@@H]2O [PACLITAXEL]	< 1 nM	IC50 (HCT-116): < 1 nM; IC50 (HepG2): < 1 nM; IC50 (BGC-823): < 1 nM; IC50 (A549 [2]): 390 nM; IC50 (MCF7): < 1 nM; inhibition in vivo at 24 mg/kg (A549 [3]): 53.8%; IC50 (B16-F10): < 1 nM; IC50 (HCT-8): 86 nM; IC50 (NCI-H1437): < 1 nM; IC50 (NCI-H1299): 9 nM; IC50 (MCF7R): 190 nM; IC50 (NCI-H460): < 1 nM; IC50 (MDA-MB-231): < 1 nM; IC50 (SW1990): 10 nM; IC50 (HGC-27): < 1 nM; IC50 (HUVEC): 71 nM
Cc1ccc(C(=O)NCc2cccnc2)cc1NS(=O)(=O)c1ccc2c(c1)CCC2	900 nM	–
Cc1ccc(C(=O)NCc2cccnc2)cc1NS(=O)(=O)c1ccc2c(c1)OCO2	610 nM	–
Cc1ccc(S(=O)(=O)Nc2cc(C(=O)NCc3ccccc3)ccc2C)cc1	> 10000 nM	–
Cc1ccc(S(=O)(=O)Nc2cc(C(=O)NCc3cccnc3)ccc2C(F)(F)F)cc1	> 10000 nM	–
Cc1ccc(C(=O)NCc2cccnc2)cc1NS(=O)(=O)c1ccc(OC(F)(F)F)cc1	> 10000 nM	–
Cc1ccc(C(=O)NCc2cccnc2)cc1NS(=O)(=O)c1ccc2c(c1)OCCO2	420 nM	–
Cc1ccc(C(=O)NCc2cccnc2)cc1NS(=O)(=O)c1ccc(F)cc1	3500 nM	–
Cc1ccc(S(=O)(=O)Nc2cc(C(=O)NCc3cccnc3)ccc2Cl)cc1	800 nM	–
Cc1ccc(S(=O)(=O)Nc2cc(C(=O)NCc3cccnc3)ccc2C)c(C)c1	500 nM	–
Cc1ccc(S(=O)(=O)Nc2cc(C(=O)Nc3cccnc3)ccc2C)cc1	> 10000 nM	–
Cc1ccc(S(=O)(=O)Nc2cc(C(=O)NCc3ccc(Cl)nc3)ccc2C)cc1	65 nM	–
Cc1ccc(S(=O)(=O)Nc2cc(Cl)cc(C(=O)NCc3cccnc3)c2)cc1	340 nM	–
Cc1ccc(S(=O)(=O)Nc2ccc(C)c(C(=O)NCc3cccnc3)c2)cc1	2000 nM	–

— ChEMBL document CHEMBL5150075 (J Med Chem, 2022)
